Measured values taken from ChEMBL document CHEMBL1141894, “Synthesis and biological properties of novel sphingosine derivatives” (Bioorg Med Chem Lett, 2005).

Tested on: HL-60
Experiment: Inhibitory concentration against [Ca2+] ion increase in HL60 cell induced by natural sphingosine-1-phosphate
Type: functional, cell-based
Settings: Homo sapiens

| SMILES | IC50 [nM] |
| --- | --- |
| N[C@@H](COP(=O)(O)O)[C@@H](O)c1ccccc1 | 179 |
| N[C@@H](COP(=O)(O)O)[C@@H](O)c1ccc([N+](=O)[O-])cc1 | 56 |
| N[C@@H](COP(=O)(O)O)[C@@H](O)/C=C/c1ccccc1 | 37 |
| CSc1ccc([C@H](O)[C@@H](N)COP(=O)(O)O)cc1 | 15 |
| CCCCCCCCCCCCC/C=C/[C@H](O)[C@@H](N)COP(=O)(O)O | 31 |
| CCCCCCCCCC/C=C/[C@H](O)[C@@H](N)COP(=O)(O)O | 15 |
| N[C@@H](CBr)[C@@H](O)c1ccccc1 | 71 |
| CSc1ccc([C@H](O)[C@@H](N)CBr)cc1 | 18 |
